Where two headings read alike, the source gives them in different places.
Tests used:
KDM4D = biological target: T1, KDM4D (Homo sapiens, UniProt Q6B0I6); test: KDM demethylase inhibition (IC50); assay type: biochemical
T1 sequence (Q6B0I6 1-523): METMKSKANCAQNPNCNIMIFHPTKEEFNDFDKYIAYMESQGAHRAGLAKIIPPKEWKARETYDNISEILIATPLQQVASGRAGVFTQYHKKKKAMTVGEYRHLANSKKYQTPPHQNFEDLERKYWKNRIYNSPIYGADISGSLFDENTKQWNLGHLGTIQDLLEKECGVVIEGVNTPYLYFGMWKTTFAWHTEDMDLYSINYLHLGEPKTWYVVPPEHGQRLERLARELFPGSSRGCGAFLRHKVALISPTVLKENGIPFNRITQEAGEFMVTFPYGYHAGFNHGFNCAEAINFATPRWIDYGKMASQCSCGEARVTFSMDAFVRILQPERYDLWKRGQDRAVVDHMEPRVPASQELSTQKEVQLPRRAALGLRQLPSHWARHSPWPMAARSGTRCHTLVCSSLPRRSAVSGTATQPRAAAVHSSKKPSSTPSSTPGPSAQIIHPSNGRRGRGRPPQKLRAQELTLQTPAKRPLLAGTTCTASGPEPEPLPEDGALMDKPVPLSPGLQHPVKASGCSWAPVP

KDM6A = KDM6A (Homo sapiens, UniProt O15550); test: KDM demethylase inhibition (IC50); assay type: biochemical
KDM2A = biological target: T2, KDM2A (Homo sapiens, UniProt Q9Y2K7); test: KDM demethylase inhibition (IC50); assay type: biochemical
T2 sequence (Q9Y2K7 1-1162): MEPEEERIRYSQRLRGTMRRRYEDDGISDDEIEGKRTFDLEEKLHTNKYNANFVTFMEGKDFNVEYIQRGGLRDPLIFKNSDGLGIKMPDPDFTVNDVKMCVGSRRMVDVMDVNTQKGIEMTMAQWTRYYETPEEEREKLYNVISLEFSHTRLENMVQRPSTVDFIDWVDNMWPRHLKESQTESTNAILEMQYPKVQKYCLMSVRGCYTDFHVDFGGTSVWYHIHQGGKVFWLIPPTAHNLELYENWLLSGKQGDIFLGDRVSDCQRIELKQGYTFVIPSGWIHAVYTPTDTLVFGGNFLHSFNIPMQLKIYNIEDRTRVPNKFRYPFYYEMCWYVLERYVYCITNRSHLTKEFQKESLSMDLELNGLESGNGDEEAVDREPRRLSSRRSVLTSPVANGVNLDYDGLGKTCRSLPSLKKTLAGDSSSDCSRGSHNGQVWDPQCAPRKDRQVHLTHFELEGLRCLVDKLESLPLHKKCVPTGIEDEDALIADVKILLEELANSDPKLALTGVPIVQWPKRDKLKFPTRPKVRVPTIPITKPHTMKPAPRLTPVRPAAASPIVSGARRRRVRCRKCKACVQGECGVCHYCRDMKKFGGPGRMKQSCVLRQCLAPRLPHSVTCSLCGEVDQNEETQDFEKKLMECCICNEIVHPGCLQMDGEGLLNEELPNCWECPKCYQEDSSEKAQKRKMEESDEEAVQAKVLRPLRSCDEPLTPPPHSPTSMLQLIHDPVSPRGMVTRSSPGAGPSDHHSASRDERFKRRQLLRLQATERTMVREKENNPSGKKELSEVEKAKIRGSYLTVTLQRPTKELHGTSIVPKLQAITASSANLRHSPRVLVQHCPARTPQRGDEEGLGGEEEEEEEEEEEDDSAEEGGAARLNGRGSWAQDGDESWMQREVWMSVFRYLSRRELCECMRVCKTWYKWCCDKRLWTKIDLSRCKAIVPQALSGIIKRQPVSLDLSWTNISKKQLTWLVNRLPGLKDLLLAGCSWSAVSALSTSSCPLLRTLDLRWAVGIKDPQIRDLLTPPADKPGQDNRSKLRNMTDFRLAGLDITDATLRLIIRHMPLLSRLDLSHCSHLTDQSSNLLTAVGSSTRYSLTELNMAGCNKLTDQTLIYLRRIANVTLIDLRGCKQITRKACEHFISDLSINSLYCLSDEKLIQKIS

KDM5B = KDM5B (Homo sapiens, UniProt Q9UGL1); test: KDM demethylase inhibition (IC50); assay type: biochemical
KDM4A = biological target: T3, KDM4A (Homo sapiens, UniProt O75164); test: KDM demethylase inhibition (IC50); assay type: biochemical
T3 sequence (O75164 1-1064): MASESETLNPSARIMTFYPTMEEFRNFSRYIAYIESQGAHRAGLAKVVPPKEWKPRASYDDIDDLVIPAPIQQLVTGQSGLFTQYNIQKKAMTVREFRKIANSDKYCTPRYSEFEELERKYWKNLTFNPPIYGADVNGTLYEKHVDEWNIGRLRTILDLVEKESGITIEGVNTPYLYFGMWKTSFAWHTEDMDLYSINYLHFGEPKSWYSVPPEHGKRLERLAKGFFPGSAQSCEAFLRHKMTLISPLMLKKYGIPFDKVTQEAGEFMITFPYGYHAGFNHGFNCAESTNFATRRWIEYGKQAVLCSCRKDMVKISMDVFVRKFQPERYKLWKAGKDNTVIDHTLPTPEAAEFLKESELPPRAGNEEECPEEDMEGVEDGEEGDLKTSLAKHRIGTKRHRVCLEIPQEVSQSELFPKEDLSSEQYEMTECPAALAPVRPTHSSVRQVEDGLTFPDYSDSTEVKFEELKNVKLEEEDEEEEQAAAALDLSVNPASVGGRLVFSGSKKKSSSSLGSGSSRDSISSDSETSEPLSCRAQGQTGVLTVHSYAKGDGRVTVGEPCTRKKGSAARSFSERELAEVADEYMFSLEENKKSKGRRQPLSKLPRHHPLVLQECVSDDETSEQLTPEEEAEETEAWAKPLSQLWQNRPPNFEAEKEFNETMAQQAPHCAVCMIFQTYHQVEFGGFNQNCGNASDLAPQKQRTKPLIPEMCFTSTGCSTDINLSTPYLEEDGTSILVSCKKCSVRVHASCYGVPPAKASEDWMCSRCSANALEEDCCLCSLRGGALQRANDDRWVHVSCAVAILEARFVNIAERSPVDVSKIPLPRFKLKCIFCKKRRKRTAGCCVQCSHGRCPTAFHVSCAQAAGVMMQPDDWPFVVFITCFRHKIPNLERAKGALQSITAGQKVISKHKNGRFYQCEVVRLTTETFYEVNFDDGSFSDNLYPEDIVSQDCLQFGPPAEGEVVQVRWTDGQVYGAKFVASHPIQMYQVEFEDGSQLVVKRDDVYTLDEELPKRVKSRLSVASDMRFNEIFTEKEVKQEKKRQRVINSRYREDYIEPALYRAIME

[1] = Pharmacokinetic study iv/po; assay type: in vivo; settings: Dose iv/po 5/10 mg/kg
[2] = read-out: IC50, demethylase activity

Chain of KDM5B (Q9UGL1 whole entry): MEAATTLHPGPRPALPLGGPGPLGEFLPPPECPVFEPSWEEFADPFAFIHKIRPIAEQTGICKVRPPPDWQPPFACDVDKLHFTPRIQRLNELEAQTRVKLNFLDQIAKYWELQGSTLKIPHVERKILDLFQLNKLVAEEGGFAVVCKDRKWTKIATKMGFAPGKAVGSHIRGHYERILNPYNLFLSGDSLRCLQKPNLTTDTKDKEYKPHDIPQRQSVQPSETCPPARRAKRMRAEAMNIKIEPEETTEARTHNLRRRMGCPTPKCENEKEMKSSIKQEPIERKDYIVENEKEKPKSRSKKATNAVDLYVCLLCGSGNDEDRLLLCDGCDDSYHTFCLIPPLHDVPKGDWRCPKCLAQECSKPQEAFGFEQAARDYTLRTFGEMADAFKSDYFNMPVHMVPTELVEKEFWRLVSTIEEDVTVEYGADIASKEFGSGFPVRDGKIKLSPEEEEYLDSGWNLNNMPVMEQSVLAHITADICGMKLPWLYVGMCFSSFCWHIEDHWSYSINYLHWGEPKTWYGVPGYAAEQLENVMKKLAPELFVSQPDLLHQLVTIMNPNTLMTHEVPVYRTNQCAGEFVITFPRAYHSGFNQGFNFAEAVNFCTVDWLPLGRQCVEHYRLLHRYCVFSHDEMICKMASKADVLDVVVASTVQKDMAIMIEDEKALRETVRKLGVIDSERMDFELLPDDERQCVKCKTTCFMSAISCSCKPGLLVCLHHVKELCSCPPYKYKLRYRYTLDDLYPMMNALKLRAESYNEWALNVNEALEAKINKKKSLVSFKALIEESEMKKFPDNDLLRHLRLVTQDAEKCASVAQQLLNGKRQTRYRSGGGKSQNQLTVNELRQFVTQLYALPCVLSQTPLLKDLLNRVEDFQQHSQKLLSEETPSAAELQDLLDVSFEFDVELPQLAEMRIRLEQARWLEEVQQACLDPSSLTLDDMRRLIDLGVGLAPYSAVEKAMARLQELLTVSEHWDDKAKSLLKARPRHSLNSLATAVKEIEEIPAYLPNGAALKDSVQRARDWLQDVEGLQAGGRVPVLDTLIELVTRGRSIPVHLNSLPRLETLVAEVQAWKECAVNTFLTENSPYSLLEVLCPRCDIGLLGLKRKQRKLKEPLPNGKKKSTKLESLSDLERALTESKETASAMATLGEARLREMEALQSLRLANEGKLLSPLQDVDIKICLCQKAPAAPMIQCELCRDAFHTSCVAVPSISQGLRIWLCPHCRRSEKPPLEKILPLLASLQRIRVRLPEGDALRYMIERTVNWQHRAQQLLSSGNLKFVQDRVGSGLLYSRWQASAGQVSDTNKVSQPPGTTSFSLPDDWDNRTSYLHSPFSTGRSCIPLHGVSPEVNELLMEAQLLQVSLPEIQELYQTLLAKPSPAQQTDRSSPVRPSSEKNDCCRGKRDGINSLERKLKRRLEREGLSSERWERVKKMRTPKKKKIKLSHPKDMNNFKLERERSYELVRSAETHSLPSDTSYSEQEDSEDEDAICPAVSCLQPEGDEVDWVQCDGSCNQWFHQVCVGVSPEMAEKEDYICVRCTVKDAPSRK
Chain of KDM6A (O15550 whole entry): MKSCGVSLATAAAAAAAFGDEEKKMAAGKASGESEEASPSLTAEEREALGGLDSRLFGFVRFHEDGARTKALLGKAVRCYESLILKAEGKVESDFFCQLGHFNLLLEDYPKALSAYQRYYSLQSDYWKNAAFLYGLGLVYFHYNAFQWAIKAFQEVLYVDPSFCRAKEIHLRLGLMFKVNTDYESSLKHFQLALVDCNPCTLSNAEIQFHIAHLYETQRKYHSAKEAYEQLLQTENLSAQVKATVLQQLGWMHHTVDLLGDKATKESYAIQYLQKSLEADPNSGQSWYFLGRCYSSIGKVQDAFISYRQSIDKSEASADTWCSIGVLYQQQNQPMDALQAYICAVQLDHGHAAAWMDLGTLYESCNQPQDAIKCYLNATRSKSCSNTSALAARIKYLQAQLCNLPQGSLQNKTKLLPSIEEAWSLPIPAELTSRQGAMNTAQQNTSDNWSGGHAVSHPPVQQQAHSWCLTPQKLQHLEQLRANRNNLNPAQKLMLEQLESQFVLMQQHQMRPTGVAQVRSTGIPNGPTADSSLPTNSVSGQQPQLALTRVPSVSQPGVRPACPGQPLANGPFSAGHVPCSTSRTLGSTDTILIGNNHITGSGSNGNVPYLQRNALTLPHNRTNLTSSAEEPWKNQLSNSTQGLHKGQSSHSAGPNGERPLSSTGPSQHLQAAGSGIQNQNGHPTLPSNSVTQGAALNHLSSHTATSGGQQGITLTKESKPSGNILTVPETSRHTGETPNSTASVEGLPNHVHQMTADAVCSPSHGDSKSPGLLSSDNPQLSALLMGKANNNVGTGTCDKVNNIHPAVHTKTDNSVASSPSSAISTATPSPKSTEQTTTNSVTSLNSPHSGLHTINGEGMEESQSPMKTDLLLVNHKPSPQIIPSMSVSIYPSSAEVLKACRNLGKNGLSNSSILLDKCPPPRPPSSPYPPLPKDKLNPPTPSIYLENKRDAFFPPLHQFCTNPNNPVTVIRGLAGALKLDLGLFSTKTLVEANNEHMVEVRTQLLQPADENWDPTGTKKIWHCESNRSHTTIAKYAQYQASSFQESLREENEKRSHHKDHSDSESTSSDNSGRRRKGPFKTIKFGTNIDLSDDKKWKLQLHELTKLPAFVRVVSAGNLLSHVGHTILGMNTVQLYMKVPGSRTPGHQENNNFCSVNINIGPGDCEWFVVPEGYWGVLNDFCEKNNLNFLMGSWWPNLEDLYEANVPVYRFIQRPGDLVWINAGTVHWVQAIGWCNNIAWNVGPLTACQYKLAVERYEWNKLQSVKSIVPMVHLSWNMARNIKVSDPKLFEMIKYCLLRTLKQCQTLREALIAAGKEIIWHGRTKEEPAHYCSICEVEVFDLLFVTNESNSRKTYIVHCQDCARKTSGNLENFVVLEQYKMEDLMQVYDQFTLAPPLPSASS

CN(c1ccccc1)c1ccc2c(c1)CCC[C@H]2CNc1cnccc1C(=O)O [Compound I, 3-({[(1R)-6-[methyl(phenyl)amino]-1,2,3,4-tetrahydronaphthalen-1-yl]methyl}amino)pyridine-4-carboxylic Acid]
IC50 (KDM4D; read-out: Compound I IC50): 0.104 µM
IC50 (KDM4D; [2]): < 0.105 µM
IC50 (KDM6A): > 10 µM
IC50 (KDM2A): > 10 µM
effect on the demethylase activity of KDM5B (KDM5B): weak effect
IC50 (KDM5B; read-out: Compound I IC50, KDM5B): 0.75 µM
IC50 (KDM4A; read-out: Compound I IC50): 0.104 µM
IC50 (KDM4A; [2]): < 0.105 µM
po 1/2 [1]: 2.57 h
Vd ([1]; plasma, 5 mg/kg, read-out: Vz (mL/kg), apparent volume of distribution during terminal phase): 666 mL/kg
AUC ([1]; plasma): 10400 ng·h/mL

Source: patent publication US20180290977A1, “KDM4 INHIBITORS” (Albert-Ludwigs-University Freiburg, priority 2017, published 2018)
